Experimental data taken from patent US20090264401A1, “SUBSTITUTED PYRIMIDIN-5-CARBOXAMIDES 281” (AstraZeneca AB, priority 2008, published 2009).

Molecular target: T1, human 11βHSD1 enzyme (Homo sapiens, UniProt P28845)
T1 construct: baculovirus expressed N terminal 6-His tagged full length human 11βHSD1 enzyme; 6-His (N); made in house
Assay: 11βHSD1 cortisone to cortisol conversion, competitive HTRF assay
Format: biochemical
Settings: for inhibition at 30 µM: human 11-βHSD, test concentration of 30 μM of compound
Outline: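 Enzyme was baculovirus-expressed, N-terminal 6-His-tagged full-length human 11βHSD1, purified on a copper chelate column. Compounds were added in buffer containing 1% DMSO at 10-fold final concentration.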

T1 sequence (P28845 whole entry): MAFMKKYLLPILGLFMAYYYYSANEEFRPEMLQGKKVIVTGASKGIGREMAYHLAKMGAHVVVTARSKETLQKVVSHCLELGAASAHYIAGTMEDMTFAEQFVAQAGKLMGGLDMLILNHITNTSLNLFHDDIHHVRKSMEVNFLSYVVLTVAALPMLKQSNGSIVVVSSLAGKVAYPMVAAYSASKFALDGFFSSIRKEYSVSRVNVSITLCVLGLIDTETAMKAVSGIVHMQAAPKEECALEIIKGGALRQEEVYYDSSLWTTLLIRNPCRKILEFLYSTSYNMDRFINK

| SMILES | inhibition at 30 µM | IC50 (recombinant N terminal 6-His tagged full length human 11βHSD1, cortisone 160 nM, 25 minutes at 37° C.) |
| --- | --- | --- |
| Cc1ncc(C(=O)N[C@H]2C3CC4CC2C[C@@](O)(C4)C3)c(-c2ccccc2Cl)n1 [Example 189, 4-(2-Chlorophenyl)-N-[(2r,5s)-5-hydroxyadamantan-2-yl]-2-methylpyrimidine-5-carboxamide] | 95.5% |  |
| Cc1ncc(C(=O)N[C@H]2C3CC4CC2C[C@@](O)(C4)C3)c(CC(C)(C)C)n1 [Example 193, 4-(2,2-Dimethylpropyl)-N-[(2r,5s)-5-hydroxyadamantan-2-yl]-2-methylpyrimidine-5-carboxamide] | 102% |  |
| CSc1ncc(C(=O)N[C@H]2C3CC4CC2C[C@@](O)(C4)C3)c(C2CCCCC2)n1 [Example 195, 4-Cyclohexyl-N-[(2r,5 s)-5-hydroxyadamantan-2-yl]-2-(methylthio)pyrimidine-5-carboxamide] | 103% |  |
| O=C(N[C@H]1C2CC3CC1C[C@@](O)(C3)C2)c1cnc(N2CCSCC2)nc1C1CCCCC1 [Example 196, 4-Cyclohexyl-N-[(2r,5 s)-5-hydroxyadamantan-2-yl]-2-thiomorpholin-4-ylpyrimidine-5-carboxamide] | 99.8% |  |
| O=C(N[C@H]1C2CC3CC1C[C@@](O)(C3)C2)c1cnc(N2CC[S+]([O-])CC2)nc1C1CCCCC1 [Example 197, 4-Cyclohexyl-N-[(2r,5 s)-5-hydroxyadamantan-2-yl]-2-(1-oxidothiomorpholin-4-yl)pyrimidine-5-carboxamide] | 97.8% |  |
| O=C(N[C@H]1C2CC3CC1C[C@@](O)(C3)C2)c1cnc(N2CCS(=O)(=O)CC2)nc1C1CCCCC1 [Example 198, 4-Cyclohexyl-2-(1,1-dioxidothiomorpholin-4-yl)-N-[(2r,5s)-5-hydroxyadamantan-2-yl]pyrimidine-5-carboxamide] | 94% |  |
| CN(C)c1ncc(C(=O)N[C@H]2C3CC4CC2C[C@@](O)(C4)C3)c(N(C)C)n1 [Example 199, 2,4-bis(dimethylamino)-N-[(2r,5s)-5-hydroxyadamantan-2-yl]pyrimidine-5-carboxamide] | 96.8% |  |
| O=C(N[C@H]1C2CC3CC1C[C@@](O)(C3)C2)c1cnc(N2CC(F)(F)C2)nc1N1CC(F)(F)C1 [Example 200, 2,4-bis(3,3-difluoroazetidin-1-yl)-N-[(2r,5s)-5-hydroxyadamantan-2-yl]pyrimidine-5-carboxamide] | 52.8% |  |
| O=C(N[C@H]1C2CC3CC1C[C@@](O)(C3)C2)c1cnc(N2CCC2)nc1N1CCC1 [Example 201, 2,4-bis(azetidin-1-yl)-N-[(2r,5s)-5-hydroxyadamantan-2-yl]pyrimidine-5-carboxamide] | 95% |  |
| Cc1ncc(C(=O)N[C@H]2C3CC4CC2C[C@@](O)(C4)C3)c(OC(C)C)n1 [Example 202, N-[(2r,5s)-5-hydroxyadamantan-2-yl]-2-methyl-4-propan-2-yloxypyrimidine-5-carboxamide] | 102% |  |
| Cc1ncc(C(=O)N[C@H]2C3CC4CC2C[C@@](O)(C4)C3)c(OC2CCC2)n1 [Example 203, 4-Cyclobutyloxy-N-[(2r,5 s)-5-hydroxyadamantan-2-yl]-2-methylpyrimidine-5-carboxamide] | 98.6% |  |
| Cc1ncc(C(=O)N[C@H]2C3CC4CC2C[C@@](O)(C4)C3)c(OC2CCCC2)n1 [Example 204, 4-Cyclopentyloxy-N-[(2r,5s)-5-hydroxyadamantan-2-yl]-2-methylpyrimidine-5-carboxamide] | 106% |  |
| COc1nc(N2C[C@@H](C)O[C@@H](C)C2)ncc1C(=O)N[C@H]1C2CC3CC1C[C@@](O)(C3)C2 [Example 205, 2-[(2R,6S)-2,6-Dimethylmorpholin-4-yl]-N-[(2r,5 s)-5-hydroxytricyclo[3.3.1.13.7]dec-2-yl]-4-methoxypyrimidine-5-carboxamide] | 102% |  |
| COc1nc(NC2CC2)ncc1C(=O)N[C@H]1C2CC3CC1C[C@@](O)(C3)C2 [Example 206, 2-(cyclopropylamino)-N-[(2r,5s)-5-hydroxytricyclo[3.3.1.13,7]dec-2-yl]-4-methoxypyrimidine-5-carboxamide] | 105% |  |
| COc1nc(NC2CCC2)ncc1C(=O)N[C@H]1C2CC3CC1C[C@@](O)(C3)C2 [Example 207, 2-(cyclobutylamino)-N-[(2r,5s)-5-hydroxytricyclo[3.3.1.13,7]dec-2-yl]-4-methoxypyrimidine-5-carboxamide] | 93% |  |
| COc1nc(OC2CCC2)ncc1C(=O)N[C@H]1C2CC3CC1C[C@@](O)(C3)C2 [Example 208, 2-(cyclobutyloxy)-N-[(2r,5s)-5-hydroxytricyclo[3.3.1.13,7]dec-2-yl]-4-methoxypyrimidine-5-carboxamide] | 102% |  |
| CCOc1nc(N2C[C@@H](C)O[C@@H](C)C2)ncc1C(=O)N[C@H]1C2CC3CC1C[C@@](O)(C3)C2 [Example 209, 2-[(2S,6R)-2,6-dimethylmorpholin-4-yl]-4-ethoxy-N-[(2r,5s)-5-hydroxyadamantan-2-yl]pyrimidine-5-carboxamide] | 99.4% |  |
| CCOc1nc(NC2CC2)ncc1C(=O)N[C@H]1C2CC3CC1C[C@@](O)(C3)C2 [Example 210, 2-(cyclopropylamino)-4-ethoxy-N-[(2r,5s)-5-hydroxytricyclo[3.3.1.13,7]dec-2-yl]pyrimidine-5-carboxamide] | 97.2% |  |
| CCOc1nc(NC2COC2)ncc1C(=O)N[C@H]1C2CC3CC1C[C@@](O)(C3)C2 [Example 211, 4-ethoxy-N-[(2r,5s)-5-hydroxytricyclo[3.3.1.13,7]dec-2-yl]-2-(oxetan-3-ylamino)pyrimidine-5-carboxamide] | 98.4% |  |
| CCOc1nc(NC2CCC2)ncc1C(=O)N[C@H]1C2CC3CC1C[C@@](O)(C3)C2 [Example 212, 2-(cyclobutylamino)-4-ethoxy-N-[(2r,5s)-5-hydroxytricyclo[3.3.1.13,7]dec-2-yl]pyrimidine-5-carboxamide] | 105% |  |
| CCOc1nc(OC2CCC2)ncc1C(=O)N[C@H]1C2CC3CC1C[C@@](O)(C3)C2 [Example 213, 2-(cyclobutyloxy)-4-ethoxy-N-[(2r,5s)-5-hydroxytricyclo[3.3.1.13,7]dec-2-yl]pyrimidine-5-carboxamide] | 107% |  |
| CC(C)Oc1nc(N2C[C@@H](C)O[C@@H](C)C2)ncc1C(=O)N[C@H]1C2CC3CC1C[C@@](O)(C3)C2 [Example 214, 2-[(2R,6S)-2,6-dimethylmorpholin-4-yl]-N-[(2r,5s)-5-hydroxytricyclo[3.3.1.13,7]dec-2-yl]-4-(1-methylethoxy)pyrimidine-5-carboxamide] | 103% |  |
| CC(C)Oc1nc(NC2CC2)ncc1C(=O)N[C@H]1C2CC3CC1C[C@@](O)(C3)C2 [Example 215, 2-(cyclopropylamino)-N-[(2r,5s)-5-hydroxytricyclo[3.3.1.13,7]dec-2-yl]-4-(1-methylethoxy)pyrimidine-5-carboxamide] | 94.9% |  |
| CC(C)Oc1nc(NC2CCC2)ncc1C(=O)N[C@H]1C2CC3CC1C[C@@](O)(C3)C2 [Example 217, 2-(cyclobutylamino)-N-[(2r,5s)-5-hydroxytricyclo[3.3.1.13,7]dec-2-yl]-4-(1-methylethoxy)pyrimidine-5-carboxamide] | 94.2% |  |
| CC(C)Oc1nc(OC2CCC2)ncc1C(=O)N[C@H]1C2CC3CC1C[C@@](O)(C3)C2 [Example 218, 2-(cyclobutyloxy)-N-[(2r,5s)-5-hydroxytricyclo[3.3.1.13,7]dec-2-yl]-4-(1-methylethoxy)pyrimidine-5-carboxamide] | 96% |  |
| COCc1nc(N2C[C@@H](C)O[C@@H](C)C2)ncc1C(=O)N[C@H]1C2CC3CC1C[C@@](O)(C3)C2 [Example 219, 2-[(2S,6R)-2,6-Dimethylmorpholin-4-yl]-N-[(2r,5s)-5-hydroxyadamantan-2-yl]-4-(methoxymethyl)pyrimidine-5-carboxamide] | 98.6% |  |
| O=C(N[C@H]1C2CC3CC1C[C@@](O)(C3)C2)c1cnc(N2CCOCC2)nc1N1CCOCC1 [compound 32] | 97% | 220 nM |
